Assay results from patent publication US8349829B2, “[4-(1-amino-ethyl)-cyclohexyl]-methyl-amine and [6-(1-amino-ethyl)-tetrahydro-pyran-3-yl]-methyl-amine derivatives as antibacterials” (Actelion Pharmaceuticals Ltd., priority 2008, dated 2013).
≈ marks a conversion by molar mass, not a printed value.

Legend:
E. coli 25922 = assay: MIC by microdilution in cation-adjusted Mueller-Hinton Broth (NCCLS); type: cell-based; details: for MIC: Escherichia coli, 25922, pH 7.2-7.3; for MIC for E. coli 25922: pH 7.2-7.3
Procedure: (§1) These assays have been performed following the description given in “Methods for dilution Antimicrobial Susceptibility Tests for Bacteria that Grow Aerobically, 4th ed.; Approved standard: NCCLS Document M7-A4; National Committee for Clinical Laboratory Standards: Villanova, Pa., USA, 1997”. Minimal inhibitory concentrations (MICs; mg/l) were determined in cation-adjusted Mueller-Hinton Broth (BBL) by a microdilution method following NCCLS guidelines (National Committee for Clinical Laboratory Standards. Methods for Dilution Antimicrobial Susceptibility). The pH of the test medium was 7.2-7.3. All Example compounds were tested against several Gram positive and Gram negative bacteria such as S. aureus, E. faecalis, S. pneumoniae, M catarrhalis, A. baumanii, E. coli or P. aeruginosa.

P. aeruginosa 27853 = assay: as above; type: cell-based; details: for MIC: Pseudomonas aeruginosa, 27853, pH 7.2-7.3; for MIC for P. aeruginosa 27853: pH 7.2-7.3
Procedure: as §1

COc1ccc2ccc(=O)n(CC(N)[C@H]3CC[C@H](NCc4ccc5c(n4)NC(=O)CS5)CC3)c2c1 (mixture of isomers) [Ref. Ex. 1, rac-6-(trans-{4-[1-amino-2-(7-methoxy-2-oxo-2H-quinolin-1-yl)-ethyl]-cyclohexylamino}-methyl)-4H-pyrido[3,2-b][1,4]thiazin-3-one]
MIC (E. coli 25922): 0.25 mg/L (≈ 0.506 µM) | MIC (P. aeruginosa 27853): 0.5 mg/L (≈ 1.01 µM)

COc1ccc2ccc(=O)n(CC(N)[C@H]3CC[C@H](NCc4ccc5c(n4)NC(=O)CO5)CC3)c2c1 (mixture of isomers) [Ref. Ex. 2, rac-6-(trans-{4-[1-amino-2-(7-methoxy-2-oxo-2H-quinolin-1-yl)-ethyl]-cyclohexylamino}-methyl)-4H-pyrido[3,2-b][1,4]oxazin-3-one]
MIC (E. coli 25922): 0.5 mg/L (≈ 1.05 µM) | MIC (P. aeruginosa 27853): 0.5 mg/L (≈ 1.05 µM)

COc1ccc2ccc(=O)n(C[C@H](N)[C@H]3CC[C@H](NCc4ccc5c(n4)NC(=O)CS5)CC3)c2c1 [Example 1, 6-(trans-{4-[(1R)-1-amino-2-(7-methoxy-2-oxo-2H-quinolin-1-yl)-ethyl]-cyclohexylamino}-methyl)-4H-pyrido[3,2-b][1,4]thiazin-3-one]
MIC (E. coli 25922): 0.063 mg/L (≈ 0.128 µM) | MIC (P. aeruginosa 27853): 0.25 mg/L (≈ 0.506 µM)

COc1ccc2ccc(=O)n(C[C@H](N)[C@H]3CC[C@H](NCc4ccc5c(n4)NC(=O)CO5)CC3)c2c1 [Example 2, 6-(trans-{4-[(1R)-1-amino-2-(7-methoxy-2-oxo-2H-quinolin-1-yl)-ethyl]-cyclohexylamino}-methyl)-4H-pyrido[3,2-b][1,4]oxazin-3-one]
MIC (E. coli 25922): 0.25 mg/L (≈ 0.523 µM) | MIC (P. aeruginosa 27853): 0.25 mg/L (≈ 0.523 µM)

COc1ccc2ccc(=O)n(C[C@H](N)[C@@H]3CC[C@@H](NCc4ccc5c(n4)NC(=O)CO5)CO3)c2c1 [Example 3, 6-({(3R,6S)-6-[(1S)-1-amino-2-(7-methoxy-2-oxo-2H-quinolin-1-yl)-ethyl]-tetrahydro-pyran-3-ylamino}-methyl)-4H-pyrido[3,2-b][1,4]oxazin-3-one]
MIC (E. coli 25922): 0.25 mg/L (≈ 0.521 µM) | MIC (P. aeruginosa 27853): 4 mg/L (≈ 8.34 µM)

COc1ccc2ccc(=O)n(C[C@H](N)[C@@H]3CC[C@@H](NC/C=C/c4cc(F)ccc4F)CO3)c2c1 [Example 4, 1-((2S)-2-amino-2-{(2S,5R)-5-[(E)-3-(2,5-difluoro-phenyl)-allylamino]-tetrahydro-pyran-2-yl}-ethyl)-7-methoxy-1H-quinolin-2-one]
MIC (E. coli 25922): 0.063 mg/L (≈ 0.134 µM) | MIC (P. aeruginosa 27853): 2 mg/L (≈ 4.26 µM)

COc1ccc2ccc(=O)n(C[C@H](N)[C@@H]3CC[C@@H](NCc4ccc5c(n4)NC(=O)CS5)CO3)c2c1 [Example 5]
MIC for E. coli 25922 (E. coli 25922): 0.125 mg/L | MIC for P. aeruginosa 27853 (P. aeruginosa 27853): 2 mg/L

COc1cnc2ccc(=O)n(C[C@H](N)[C@@H]3CC[C@@H](NCc4ccc5c(n4)NC(=O)CS5)CO3)c2c1 [Example 6, 6-({(3R,6S)-6-[(1S)-1-amino-2-(7-methoxy-2-oxo-2H-[1,5]naphthyridin-1-yl)-ethyl]-tetrahydro-pyran-3-ylamino}-methyl)-4H-pyrido[3,2-b][1,4]thiazin-3-one]
MIC (E. coli 25922): 0.25 mg/L (≈ 0.503 µM) | MIC (P. aeruginosa 27853): 2 mg/L (≈ 4.03 µM)

COc1cnc2ccc(=O)n(C[C@H](N)[C@@H]3CC[C@@H](NCc4ccc5c(n4)NC(=O)CO5)CO3)c2c1 [Example 7, 6-({(3R,6S)-6-[(1S)-1-amino-2-(7-methoxy-2-oxo-2H-[1,5]naphthyridin-1-yl)-ethyl]-tetrahydro-pyran-3-ylamino}-methyl)-4H-pyrido[3,2-b][1,4]oxazin-3-one]
MIC (E. coli 25922): 1 mg/L (≈ 2.08 µM) | MIC (P. aeruginosa 27853): 4 mg/L (≈ 8.32 µM)

COc1cnc2ccc(=O)n(C[C@H](N)[C@@H]3CC[C@@H](NCc4ccc5c(c4)NC(=O)CO5)CO3)c2c1 [Example 8, 6-({(3R,6S)-6-[(1S)-1-amino-2-(7-methoxy-2-oxo-2H-[1,5]naphthyridin-1-yl)-ethyl]-tetrahydro-pyran-3-ylamino}-methyl)-4H-benzo[1,4]oxazin-3-one]
MIC (E. coli 25922): 1 mg/L (≈ 2.09 µM) | MIC (P. aeruginosa 27853): 4 mg/L (≈ 8.34 µM)

COc1ccc2ncc(=O)n(C[C@H](N)[C@@H]3CC[C@@H](NCc4ccc5c(n4)NC(=O)CS5)CO3)c2c1 [Example 9, 6-({(3R,6S)-6-[(1S)-1-amino-2-(7-methoxy-2-oxo-2H-quinoxalin-1-yl)-ethyl]-tetrahydro-pyran-3-ylamino}-methyl)-4H-pyrido[3,2-b][1,4]thiazin-3-one]
MIC (E. coli 25922): 0.25 mg/L (≈ 0.503 µM) | MIC (P. aeruginosa 27853): 16 mg/L (≈ 32.2 µM)

COc1ccc2ccc(=O)n(C[C@H](N)[C@@H]3CC[C@@H](NCc4ccc5c(n4)NC(=O)CS5)CO3)c2n1 [Example 10, 6-({(3R,6S)-6-[(1S)-1-amino-2-(7-methoxy-2-oxo-2H-[1,8]naphthyridin-1-yl)-ethyl]-tetrahydro-pyran-3-ylamino}-methyl)-4H-pyrido[3,2-b][1,4]thiazin-3-one]
MIC (E. coli 25922): ≤ 0.031 mg/L | MIC (P. aeruginosa 27853): 0.5 mg/L (≈ 1.01 µM)

COc1ccc2ccc(=O)n(C[C@H](N)[C@@H]3CC[C@@H](NCc4ccc5c(n4)NC(=O)CO5)CO3)c2n1 [Example 11, 6-({(3R,6S)-6-[(1S)-1-amino-2-(7-methoxy-2-oxo-2H-[1,8]naphthyridin-1-yl)-ethyl]-tetrahydro-pyran-3-ylamino}-methyl)-4H-pyrido[3,2-b][1,4]oxazin-3-one]
MIC (E. coli 25922): 0.5 mg/L (≈ 1.04 µM) | MIC (P. aeruginosa 27853): 8 mg/L (≈ 16.6 µM)

COc1ccc2ccc(=O)n(C[C@H](N)[C@@H]3CC[C@@H](NCc4cc5c(cn4)OCCO5)CO3)c2n1 [Example 12, 1-((1S)-2-amino-2-{(2S,5R)-5-[(2,3-dihydro-[1,4]dioxino[2,3-c]pyridin-7-ylmethyl)-amino]-tetrahydro-pyran-2-yl}-ethyl)-7-methoxy-1H-[1,8]naphthyridin-2-one]
MIC for E. coli 25922 (E. coli 25922): 0.063 mg/L | MIC for P. aeruginosa 27853 (P. aeruginosa 27853): 0.5 mg/L

COc1ccc2ccc(=O)n(CC(N)C3CCC(NC/C=C/c4cc(F)ccc4F)CC3)c2c1 [Example 13, 1-((1R)-2-amino-2-{4-[(E)-3-(2,5-difluoro-phenyl)-allylamino]-cyclohexyl}-ethyl)-7-methoxy-1H-quinolin-2-one]
MIC for E. coli 25922 (E. coli 25922): 0.25 mg/L | MIC for P. aeruginosa 27853 (P. aeruginosa 27853): 1 mg/L
